Reference: patent US12383556B2, “Methods of treating Sjögren's syndrome using a Bruton's tyrosine kinase inhibitor” (NOVARTIS AG, priority 2019, dated 2025)
Where two headings read alike, the source gives them in different places.

Test: First-in-human Part 2 multiple ascending dose q.d. blood and urine PK
Type: in vivo
Details: human, oral; for Cmax: read-out: Cmax; for MRT: read-out: MRT; for Vd/F: read-out: Vss/F; for half-life: read-out: T½ (converted)
Source text: First-in-human study in up to approximately 168 healthy volunteers (HVs), of which 64 (in Parts 2 & 4) had asymptomatic atopic diathesis. • Part 1 was a double-blind (subject and investigator blind, sponsor unblinded), placebo-controlled single ascending dose (SAD) escalation study of 10 cohorts (N=80) • Part 2 was a double-blind (subject and investigator blind, sponsor unblinded), placebo-controlled multiple ascending dose (MAD) (13 doses over 12 days) escalation study employing once daily dosing in 6 cohorts in healthy volunteers with asymptomatic atopic diathesis (N=48) • Part 3 was a single dose open-label crossover food effect study in 12 HVs • Part 4 was a double-blind (subject and investigator blind, sponsor unblinded), placebo-controlled multiple dose (25 doses over 12 days) study employing twice daily dosing in 2 cohorts of healthy volunteers with asymptomatic atopic diathesis (N=16)
In Parts 2 and 4, subjects were admitted on Day −2 or −1 for baseline safety assessments and to confirm eligibility. Eligible subjects received the first dose of compound (I) under fasting conditions on Day 1, and continued to take study medication under fasting conditions up to and including Day 12. Subjects were domiciled from Day −2 or −1 until the morning of Day 16, which equals 96 hours after the last dose of compound (I) was received. In Parts 2 and 4, the study medication was given once daily and twice daily respectively (details are found in the schedule of assessments).
Subjects were assigned to one of the following 6 cohorts. In each cohort, 8 subjects were randomized to either compound (I) or matching placebo in a 6:2 ratio. • Cohort 1: multiple oral doses of 10 mg compound (I) or matching placebo • Cohort 2: multiple oral doses of 25 mg compound (I) or matching placebo • Cohort 3: multiple oral doses of 50 mg compound (I) or matching placebo • Cohort 4: multiple oral doses of 100 mg compound (I) or matching placebo • Cohort 5: multiple oral doses of 400 mg compound (I) or matching placebo • Cohort 6: multiple oral doses of up to 600 mg compound (I) or matching placebo
Pharmacokinetic samples were obtained in blood and evaluated in all subjects at all dose levels. The samples from placebo subjects were not analyzed. The samples for PK assessments from subjects were collected at time points defined in the study. Compound (I) concentrations were determined in blood by a validated LC-MS/MS method.

[1] = blood, 10 mg, 10 mg qd, Day 1, blood, Median (Min-Max)
[2] = blood, 10 mg, 10 mg qd, Day 12, blood, Median (Min-Max)
[3] = blood, 25 mg, 25 mg qd, Day 1, blood, Median (Min-Max)
[4] = blood, 25 mg, 25 mg qd, Day 12, blood, Median (Min-Max)
[5] = blood, 50 mg, 50 mg qd, Day 1, blood, Median (Min-Max)
[6] = blood, 50 mg, 50 mg qd, Day 12, blood, Median (Min-Max)
[7] = blood, 100 mg, 100 mg qd, Day 12, blood, Median (Min-Max)
[8] = blood, 400 mg, 400 mg qd, Day 12, blood, Median (Min-Max)
[9] = blood, 600 mg, 600 mg qd, Day 12, blood, Median (Min-Max)

AUC(0-t) (blood, 10 mg, 10 mg qd, Day 1, blood, Median (Min-Max), read-out: AUClast): 4.4 ng·h/mL
Cmax [1]: 8.03 ng/mL
MRT [1]: 0.766 h
Vd/F (blood, 10 mg, 10 mg qd, Day 12, blood, Mean ± SD): 554 ± 90.4 L
Tmax [2]: 0.625 h
Cmax [2]: 17.2 ng/mL
Vd/F [2]: 562 L
AUC(0-t) (blood, 25 mg, 25 mg qd, Day 1, blood, Mean ± SD, read-out: AUC0-24): 44.9 ± 25.2 ng·h/mL
AUC(0-t) (blood, 25 mg, 25 mg qd, Day 1, blood, Mean ± SD, read-out: AUClast): 43.9 ± 24.6 ng·h/mL
MRT (blood, 25 mg, 25 mg qd, Day 1, blood, Mean ± SD): 1.18 ± 0.49 h
AUC(0-t) (blood, 25 mg, 25 mg qd, Day 1, blood, Median (Min-Max), read-out: AUC0-24): 46.6 ng·h/mL
AUC(0-t) (blood, 25 mg, 25 mg qd, Day 1, blood, Median (Min-Max), read-out: AUClast): 45.5 ng·h/mL
Cmax [3]: 37.3 ng/mL
MRT [3]: 1.17 h
Vd/F (blood, 25 mg, 25 mg qd, Day 12, blood, Mean ± SD): 407 ± 208 L
Cmax [4]: 78.4 ng/mL
Vd/F [4]: 334 L
AUC(0-t) (blood, 50 mg, 50 mg qd, Day 1, blood, Mean ± SD, read-out: AUC0-24): 116 ± 32.9 ng·h/mL
AUC(0-t) (blood, 50 mg, 50 mg qd, Day 1, blood, Mean ± SD, read-out: AUClast): 113 ± 34.2 ng·h/mL
MRT (blood, 50 mg, 50 mg qd, Day 1, blood, Mean ± SD): 2.53 ± 1.17 h
Tmax [5]: 0.5 h
AUC(0-t) (blood, 50 mg, 50 mg qd, Day 1, blood, Median (Min-Max), read-out: AUC0-24): 107 ng·h/mL
AUC(0-t) (blood, 50 mg, 50 mg qd, Day 1, blood, Median (Min-Max), read-out: AUClast): 103 ng·h/mL
Cmax [5]: 70.1 ng/mL
MRT [5]: 2.44 h
Vd/F (blood, 50 mg, 50 mg qd, Day 12, blood, Mean ± SD): 431 ± 172 L
Tmax [6]: 1 h
Vd/F [6]: 346 L
MRT (blood, 100 mg, 100 mg qd, Day 1, blood, Median (Min-Max)): 2.16 h
Vd/F (blood, 100 mg, 100 mg qd, Day 12, blood, Mean ± SD): 1910 ± 2780 L
Cmax [7]: 205 ng/mL
Vd/F [7]: 338 L
AUC(0-t) (blood, 400 mg, 400 mg qd, Day 1, blood, Median (Min-Max), read-out: AUC0-24): 826 ng·h/mL
AUC(0-t) (blood, 400 mg, 400 mg qd, Day 1, blood, Median (Min-Max), read-out: AUClast): 826 ng·h/mL
MRT (blood, 400 mg, 400 mg qd, Day 1, blood, Median (Min-Max)): 2.94 h
Vd/F (blood, 400 mg, 400 mg qd, Day 12, blood, Mean ± SD): 4400 ± 3340 L
Cmax [8]: 476 ng/mL
Vd/F [8]: 3440 L
AUC(0-t) (blood, 600 mg, 600 mg qd, Day 1, blood, Median (Min-Max), read-out: AUC0-24): 932 ng·h/mL
AUC(0-t) (blood, 600 mg, 600 mg qd, Day 1, blood, Median (Min-Max), read-out: AUClast): 931 ng·h/mL
MRT (blood, 600 mg, 600 mg qd, Day 1, blood, Median (Min-Max)): 3.22 h
Vd/F (blood, 600 mg, 600 mg qd, Day 12, blood, Mean ± SD): 7130 ± 5120 L
Cmax [9]: 475 ng/mL
Vd/F [9]: 7070 L
concentration at 24 h (blood, multiple doses, typical, read-out: blood concentration at 24 hours post last dose): < 1 ng/mL
AUC(0-inf) (whole blood, 10 mg, 10 mg qd, Day 12, blood, Mean ± SD): 24.7 ± 3.65 ng·h/mL
AUC(0-t) (whole blood, 10 mg, 10 mg qd, Day 12, blood, Mean ± SD, read-out: AUC0-24): 24 ± 3.6 ng·h/mL
AUC(0-t) (whole blood, 10 mg, 10 mg qd, Day 12, blood, Mean ± SD, read-out: AUClast): 22.9 ± 3.5 ng·h/mL
AUC(0-inf) (whole blood, 10 mg, 10 mg qd, Day 12, blood, Median (Min-Max)): 24.3 ng·h/mL
AUC(0-t) (whole blood, 10 mg, 10 mg qd, Day 12, blood, Median (Min-Max), read-out: AUC0-24): 23.6 ng·h/mL
AUC(0-t) (whole blood, 10 mg, 10 mg qd, Day 12, blood, Median (Min-Max), read-out: AUClast): 22.4 ng·h/mL
AUC(0-inf) (whole blood, 25 mg, 25 mg qd, Day 12, blood, Mean ± SD): 117 ± 60.4 ng·h/mL
AUC(0-t) (whole blood, 25 mg, 25 mg qd, Day 12, blood, Mean ± SD, read-out: AUC0-24): 117 ± 60.9 ng·h/mL
AUC(0-t) (whole blood, 25 mg, 25 mg qd, Day 12, blood, Mean ± SD, read-out: AUClast): 114 ± 59.7 ng·h/mL
AUC(0-inf) (whole blood, 25 mg, 25 mg qd, Day 12, blood, Median (Min-Max)): 102 ng·h/mL
AUC(0-t) (whole blood, 25 mg, 25 mg qd, Day 12, blood, Median (Min-Max), read-out: AUC0-24): 101 ng·h/mL
AUC(0-t) (whole blood, 25 mg, 25 mg qd, Day 12, blood, Median (Min-Max), read-out: AUClast): 98.2 ng·h/mL
AUC(0-inf) (whole blood, 50 mg, 50 mg qd, Day 12, blood, Mean ± SD): 209 ± 80 ng·h/mL
AUC(0-t) (whole blood, 50 mg, 50 mg qd, Day 12, blood, Mean ± SD, read-out: AUC0-24): 209 ± 80.2 ng·h/mL
AUC(0-t) (whole blood, 50 mg, 50 mg qd, Day 12, blood, Mean ± SD, read-out: AUClast): 207 ± 80.4 ng·h/mL
AUC(0-inf) (whole blood, 50 mg, 50 mg qd, Day 12, blood, Median (Min-Max)): 181 ng·h/mL
AUC(0-t) (whole blood, 50 mg, 50 mg qd, Day 12, blood, Median (Min-Max), read-out: AUC0-24): 181 ng·h/mL
AUC(0-t) (whole blood, 50 mg, 50 mg qd, Day 12, blood, Median (Min-Max), read-out: AUClast): 179 ng·h/mL
AUC(0-inf) (whole blood, 100 mg, 100 mg qd, Day 12, blood, Mean ± SD): 577 ± 207 ng·h/mL
AUC(0-inf) (whole blood, 100 mg, 100 mg qd, Day 12, blood, Median (Min-Max)): 595 ng·h/mL
AUC(0-t) (whole blood, 100 mg, 100 mg qd, Day 12, blood, Median (Min-Max), read-out: AUC0-24): 429 ng·h/mL
AUC(0-t) (whole blood, 100 mg, 100 mg qd, Day 12, blood, Median (Min-Max), read-out: AUClast): 444 ng·h/mL
AUC(0-inf) (whole blood, 400 mg, 400 mg qd, Day 12, blood, Mean ± SD): 1330 ± 608 ng·h/mL
AUC(0-inf) (whole blood, 400 mg, 400 mg qd, Day 12, blood, Median (Min-Max)): 1210 ng·h/mL
AUC(0-t) (whole blood, 400 mg, 400 mg qd, Day 12, blood, Median (Min-Max), read-out: AUC0-24): 1140 ng·h/mL
AUC(0-t) (whole blood, 400 mg, 400 mg qd, Day 12, blood, Median (Min-Max), read-out: AUClast): 1180 ng·h/mL
AUC(0-inf) (whole blood, 600 mg, 600 mg qd, Day 12, blood, Mean ± SD): 1260 ± 338 ng·h/mL
AUC(0-inf) (whole blood, 600 mg, 600 mg qd, Day 12, blood, Median (Min-Max)): 1090 ng·h/mL
AUC(0-t) (whole blood, 600 mg, 600 mg qd, Day 12, blood, Median (Min-Max), read-out: AUC0-24): 1060 ng·h/mL
half-life (whole blood, 10 mg qd, Day 12, blood, Median (Min-Max)): 0.961 h
half-life (whole blood, 25 mg qd, Day 12, blood, Median (Min-Max)): 1.15 h
half-life (whole blood, 50 mg qd, Day 12, blood, Median (Min-Max)): 1.15 h
SMILES: C=CC(=O)N(C)CCOc1c(N)ncnc1-c1cc(F)cc(NC(=O)c2ccc(C3CC3)cc2F)c1C [Compound of Formula (I), N-(3-(6-Amino-5-(2-(N-methylacrylamido)ethoxy)pyrimidin-4-yl)-5-fluoro-2-methylphenyl)-4-cyclopropyl-2-fluorobenzamide]
